{"source": "patent US10383837B2", "about": "“Compositions and methods for modulating metabolic pathways” (NuSirt Sciences, Inc., priority 2011, dated 2019)", "key": {"[1]": {"experiment": "Indices of insulin sensitivity (plasma glucose, insulin, HOMAIR) in diet-induced obese mice", "assay_type": "in vivo, c57/BL6 mice", "details": "6 weeks on diet, low resveratrol 12.5 mg/kg diet, low HMB 2 g CaHMB/kg diet, high HMB 10 g CaHMB/kg diet, leucine 2.42% of diet", "text": "Insulin sensitivity can be measured using a variety of techniques, including HOMAIR. HOMAIR, which is the homeostasis model assessment of insulin resistance can be used as a screening index of changes in insulin sensitivity. HOMAIR can be calculated via standard formula from fasting plasma insulin and glucose as follows: HOMAIR=[Insulin (uU/mL)×glucose (mM)]/22.5.\n(§1) Six week old male c57/BL6 mice were fed a high-fat diet with fat increased to 45% of energy (Research Diets D12451) for 6 weeks to induce obesity."}, "[2]": {"test_system": "PGC-1α, NRF-1, UCP3 genes", "experiment": "Expression of mitochondrial regulatory and component genes", "assay_type": "cell-based"}, "SIRT1": {"target": "T1, SIRT1 (Mus musculus, UniProt Q923E4)", "T1 sequence (Q923E4 1-737)": "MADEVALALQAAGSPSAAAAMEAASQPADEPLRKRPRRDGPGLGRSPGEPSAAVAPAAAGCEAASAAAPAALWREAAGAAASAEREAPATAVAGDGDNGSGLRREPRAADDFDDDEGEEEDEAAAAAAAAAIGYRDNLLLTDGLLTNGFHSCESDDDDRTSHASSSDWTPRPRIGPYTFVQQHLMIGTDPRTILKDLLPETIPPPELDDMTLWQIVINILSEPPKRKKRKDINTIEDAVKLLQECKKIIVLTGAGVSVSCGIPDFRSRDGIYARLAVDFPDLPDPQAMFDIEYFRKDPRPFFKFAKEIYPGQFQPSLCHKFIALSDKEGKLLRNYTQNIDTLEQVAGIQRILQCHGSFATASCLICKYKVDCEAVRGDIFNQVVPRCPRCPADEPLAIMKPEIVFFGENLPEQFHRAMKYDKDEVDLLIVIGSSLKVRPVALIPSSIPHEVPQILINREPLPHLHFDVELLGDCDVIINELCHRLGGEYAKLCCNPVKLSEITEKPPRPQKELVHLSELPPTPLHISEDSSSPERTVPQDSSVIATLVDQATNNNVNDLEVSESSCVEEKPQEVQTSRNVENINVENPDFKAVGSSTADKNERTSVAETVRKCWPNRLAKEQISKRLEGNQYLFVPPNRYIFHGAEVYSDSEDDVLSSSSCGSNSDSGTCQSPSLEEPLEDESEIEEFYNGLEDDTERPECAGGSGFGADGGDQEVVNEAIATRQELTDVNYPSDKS", "experiment": "Adipose tissue Sirt1 activity in diet-induced obese mice", "assay_type": "in vivo, c57/BL6 mice", "design": "from tissue; host or cells: adipose tissue of diet-induced obese c57/BL6 mice", "details": "6 weeks, low dose of resveratrol, HMB, leucine diets"}, "Sirt3": {"target": "T2, Sirt3 (Mus musculus, UniProt Q8R104)", "T2 construct": "endogenous in cells; host or cells: 3T3-L1 adipocytes (mitochondrial protein)", "T2 sequence (Q8R104 1-334)": "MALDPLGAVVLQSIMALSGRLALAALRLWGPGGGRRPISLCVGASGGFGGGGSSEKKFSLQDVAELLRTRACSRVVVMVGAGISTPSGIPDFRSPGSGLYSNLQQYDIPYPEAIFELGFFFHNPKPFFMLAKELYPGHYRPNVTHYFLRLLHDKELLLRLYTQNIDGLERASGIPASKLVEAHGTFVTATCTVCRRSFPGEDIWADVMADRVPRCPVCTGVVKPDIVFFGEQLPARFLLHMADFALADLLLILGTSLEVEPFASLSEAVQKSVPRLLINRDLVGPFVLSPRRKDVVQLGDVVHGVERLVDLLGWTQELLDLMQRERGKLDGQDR", "experiment": "Sirt3 activity in mitochondrial protein of treated 3T3-L1 adipocytes", "assay_type": "cell-based", "details": "leucine 0.5 mM, HMB 5 μM, resveratrol 200 nM; summary in Example 5"}, "Adipocytes (3T3-L1)": {"test_system": "Adipocytes (3T3-L1)", "experiment": "Fatty acid oxidation by 3H-palmitate in 3T3-L1 adipocytes", "assay_type": "cell-based", "details": "4 hours, resveratrol 200 nM, HMB 5 uM, leucine 0.5 mM; for increase in fatty acid oxidation, low glucose: low (5 mM) glucose", "protocol": "High glucose medium reduced fatty acid oxidation by 46% (p<0.05).\nFatty acid oxidation was measured using ^3H-labeled palmitate oxidation, with the ^3H label trapped as water as a result of the fat oxidation. The ^3H was then measured via scintillation counter."}, "myotube": {"test_system": "myotube", "experiment": "Myotube mitochondrial biogenesis, fluorometric NAO binding, Example 1", "assay_type": "cell-based", "details": "myotubes", "protocol": "(§2) We next investigated the role of intact leucine (0-0.5 mM) vs. its metabolites, α-ketoisocaproic acid (KIC) (0-0.5 mM) and HMB (0-50 μM). […] Both leucine and HMB increased myotube mitochondrial biogenesis (assessed fluorometrically via NAO binding) by ˜50%, (p<0.005, FIG. 3)."}, "[3]": {"test_system": "C-reactive protein, IL-6, MCP-1, adiponectin", "experiment": "Circulating inflammatory biomarkers in diet-induced obese mice", "assay_type": "in vivo, c57/BL6 mice", "details": "6 weeks on diet, low resveratrol 12.5 mg/kg diet, low HMB 2 g CaHMB/kg diet, high HMB 10 g CaHMB/kg diet, leucine 2.42% of diet"}, "[4]": {"experiment": "Body weight, weight gain and visceral adipose volume in diet-induced obese mice", "assay_type": "in vivo, c57/BL6 mice", "details": "6 weeks on diet, low resveratrol 12.5 mg/kg diet, low HMB 2 g CaHMB/kg diet, high HMB 10 g CaHMB/kg diet, leucine 2.42% of diet", "text": "as §1\nAt the of the treatment period (6 weeks) all animals were humanely euthanized, and blood and tissues collected for further experiments."}, "[5]": {"test_system": "adipocytes (3T3-L1) and myotubes (C2C12)", "experiment": "Fatty acid oxidation screening: dose-response curves and synergy, cell type not separately stated", "assay_type": "cell-based", "details": "for concentration that exerts no effect in dose-response curves (sub-therapeutic dose used in synergy experiments): fatty acid oxidation dose-response"}, "c2c12 myotubes [6]": {"test_system": "c2c12 myotubes", "experiment": "Fatty acid oxidation (FAO) in c2c12 myotubes, Example 1", "assay_type": "cell-based", "details": "in the presence and absence of 20 nM rapamycin", "protocol": "We have shown that catabolic systems are also stimulated to fuel this process, resulting in increased mitochondrial biogenesis and fatty acid oxidation (FAO). To address the mechanism of this effect, we first determined its mTOR-dependence by assessing leucine stimulation of FAO in the presence and absence of 20 nM rapamycin; although rapamycin inhibited FAO in c2c12 myotubes, the degree of leucine stimulation was preserved (˜50%, p<0.03; FIG. 1).\nas §2"}, "[7]": {"details": "db/db mice, 2 weeks"}, "[8]": {"experiment": "Plasma insulin, glucose and HOMAIR in diabetic db/db mice", "assay_type": "in vivo", "details": "2 weeks, low dose (150 mg/kg) and very low dose (50 mg/kg) of metformin"}, "[9]": {"details": "db/db mice, day 7, insulin 0.75 U/kg i.p.; standard metformin dose or blends"}, "c2c12 myotubes [10]": {"test_system": "c2c12 myotubes", "experiment": "Glucose utilization, extracellular acidification response to glucose, myotubes", "assay_type": "cell-based", "details": "leucine 0.5 mM, HMB 5 μM, resveratrol 200 nM, partner at its no-effect concentration", "protocol": "All compounds were tested for potential to independently or synergistically modulate sirtuin signaling either by direct stimulation or indirect via upstream signaling via AMPK. A key outcome of Sirt1 signaling is stimulation of PGC1-α and subsequent stimulation of mitochondrial biogenesis and fatty acid oxidation. Accordingly, fatty acid oxidation, measured as palmitate-induced oxygen consumption as described below, was utilized as a sensitive first level of screening for aerobic mitochondrial metabolism. A dose-response curve for fatty acid oxidation was established for each compound studied, and a “sub-therapeutic dose” was defined as the highest dose that exerted no effect in this system. […] Following assessment of fatty acid oxidation, Sirt1 activity, AMPK activity, mitochondrial biogenesis and glucose utilization (measured as glucose-induced extracellular acidification in the absence of fatty acids in the media) were assessed for lead combinations and appropriate controls. In the absence of a fatty acid source and oxidative metabolism, glycolysis and subsequent lactate production results in extracellular acidification, which was also measured using a Seahorse Bioscience XF24 analyzer. […] Data for each sample were normalized to the pre-glucose injection baseline for that sample and expressed as % change from that baseline. […]"}, "myotubes (C2C12)": {"test_system": "myotubes (C2C12)", "experiment": "Fatty acid oxidation, palmitate-induced O2 consumption (Seahorse XF24), myotubes", "assay_type": "cell-based", "details": "24 hours treatment, leucine 0.5 mM, HMB 5 μM, resveratrol 200 nM, partner at its no-effect concentration, % change from control"}}, "note": "Marks after values point to notes of the source that are not given here."}
{"compound": "CC(C)(O)CC(=O)O", "note": "[HMB, beta-hydroxymethylbutyrate]", "values": [{"measurement": "Glucose (plasma)", "setting": "[1]", "result": "4.28 ± 0.49^a mM"}, {"measurement": "Insulin (plasma)", "setting": "[1]", "result": "8.3 ± 1.1^a μU/mL"}, {"measurement": "expression of mitochondrial regulatory (PGC-1α and NRF-1) and component (UCP3) genes", "setting": "[2]", "result": "stimulated expression"}, {"measurement": "adipose tissue Sirt1 activity", "setting": "SIRT1", "result": "Neither resveratrol nor HMB exerted significant independent effects"}, {"measurement": "stimulation of Sirt3", "setting": "Sirt3", "result": "no independent effects"}, {"measurement": "increase in fatty acid oxidation, high glucose", "setting": "Adipocytes (3T3-L1); high (25 mM) glucose, vs. control", "result": 29, "unit": "%"}, {"measurement": "increase in fatty acid oxidation, low glucose", "setting": "Adipocytes (3T3-L1)", "result": "no independent effect"}, {"measurement": "increase in myotube mitochondrial biogenesis (NAO binding)", "setting": "myotube", "result": "~50", "unit": "%"}, {"measurement": "Adiponectin", "setting": "[3]", "result": "11.1 ± 1.6^a ng/mL"}, {"measurement": "C-reactive protein", "setting": "[3]", "result": "98.6 ± 5.1^a ng/mL"}, {"measurement": "IL-6", "setting": "[3]", "result": "19.9 ± 3.1^a pg/mL"}, {"measurement": "MCP-1", "setting": "[3]", "result": "116.8 ± 9.3^a pg/mL"}, {"measurement": "Visceral Adipose Volume", "setting": "[4]", "result": "6184 ± 460^a mm^3"}, {"measurement": "Weight", "setting": "[4]", "result": "40.3 ± 2.1^a g"}, {"measurement": "Weight gain", "setting": "[4]", "result": "22.5 ± 1.2", "unit": "g"}]}
{"compound": "OC[C@@H](O)[C@@H](O[C@H]1O[C@H](CO)[C@@H](O)[C@H](O)[C@H]1O)[C@H](O)[C@@H](O)CO", "note": "[Maltitol, maltitol]", "values": [{"measurement": "concentration that exerts no effect in dose-response curves (sub-therapeutic dose used in synergy experiments)", "setting": "[5]", "result": "≤ 100", "unit": "nM"}, {"measurement": "synergy with HMB or leucine in stimulating fatty acid oxidation", "setting": "[5]; leucine 0.5 mM, HMB 5 μM", "result": "no synergy was noted"}]}
{"compound": "Cn1c(=O)c2[nH]cnc2n(C)c1=O", "note": "[Theophylline, theophylline, reference compound]", "values": [{"measurement": "concentration that exerts no effect in dose-response curves (sub-therapeutic dose used in synergy experiments)", "setting": "[5]", "result": "below 1 μM"}]}
{"compound": "CC(C)C[C@H](N)C(=O)O", "note": "[leucine]", "values": [{"measurement": "degree of leucine stimulation of FAO", "setting": "c2c12 myotubes [6]", "result": "~50", "unit": "%"}, {"measurement": "expression of mitochondrial regulatory (PGC-1α and NRF-1) and component (UCP3) genes", "setting": "[2]", "result": "stimulated expression"}, {"measurement": "stimulation of Sirt3", "setting": "Sirt3", "result": "no independent effects"}, {"measurement": "increase in fatty acid oxidation, low glucose", "setting": "Adipocytes (3T3-L1)", "result": "no independent effect"}, {"measurement": "increase in myotube mitochondrial biogenesis (NAO binding)", "setting": "myotube", "result": "~50", "unit": "%"}]}
{"compound": "O=c1oc2c(O)c(O)cc3c(=O)oc4c(O)c(O)cc1c4c23", "note": "[Ellagic acid, ellagic acid]", "values": [{"measurement": "independent activity in dose-response curves / direct stimulation of fatty acid oxidation", "setting": "[5]", "result": "little activity, even at high concentrations"}]}
{"compound": "fucoxanthin", "values": [{"measurement": "concentration that exerts no effect in dose-response curves (sub-therapeutic dose used in synergy experiments)", "setting": "[5]", "result": "≤ 100", "unit": "nM"}]}
{"compound": "CN(C)C(=N)N=C(N)N", "note": "[metformin]", "values": [{"measurement": "visceral fat mass", "setting": "[7]; control 4.5 g", "result": "not affected"}, {"measurement": "effect on body composition", "setting": "[7]; high dose metformin 300 mg/kg bw", "result": "no significant effects"}, {"measurement": "independent effects on any variable studied", "setting": "[8]", "result": "no significant independent effects"}, {"measurement": "decrease in blood glucose over the 30 minute linear portion of the insulin tolerance test response curve", "setting": "[9]", "result": "~60", "unit": "mg/dL"}]}
{"compound": "O=C(O)/C=C/c1ccc(O)c(O)c1", "note": "[Caffeic acid, caffeic acid]", "values": [{"measurement": "concentration that exerts no effect in dose-response curves (sub-therapeutic dose used in synergy experiments)", "setting": "[5]", "result": "≤ 1000", "unit": "nM"}]}
{"compound": "O=C(O[C@@H]1Cc2c(O)cc(O)cc2O[C@@H]1c1cc(O)c(O)c(O)c1)c1cc(O)c(O)c(O)c1", "note": "[EGCG, epigallocatechin gallate]", "values": [{"measurement": "independent activity in dose-response curves / direct stimulation of fatty acid oxidation", "setting": "[5]", "result": "minimally active"}, {"measurement": "increase in glucose utilization, myotubes", "setting": "c2c12 myotubes [10]", "result": "no independent effect"}]}
{"compound": "Cn1c(=O)c2c(ncn2C)n(C)c1=O", "note": "[Caffeine, caffeine, reference compound]", "values": [{"measurement": "increase in myotube fatty acid oxidation", "setting": "myotubes (C2C12)", "result": "neither component exerted an independent effect"}]}
